Read-outs that look alike come from different tables or passages of the source.
Assays:
[1] = target: T1, ECAO (Escherichia coli, UniProt P46883); assay: ECAO inhibitor test (spectroscopic amine oxidase activity assay, purified ECAO, substrate PEA); type: biochemical; conditions: for decrease of ECAO activity by aminoglycoside: aminoglycoside 1 mM (Fig 2C), sisomycin p = 0.06; for IC50: purified ECAO
T1 construct: made in house; host or cells: E. coli; inferred from the overexpression strain E. coli (pKK233-3-tynA)
T1 sequence (P46883 31-757): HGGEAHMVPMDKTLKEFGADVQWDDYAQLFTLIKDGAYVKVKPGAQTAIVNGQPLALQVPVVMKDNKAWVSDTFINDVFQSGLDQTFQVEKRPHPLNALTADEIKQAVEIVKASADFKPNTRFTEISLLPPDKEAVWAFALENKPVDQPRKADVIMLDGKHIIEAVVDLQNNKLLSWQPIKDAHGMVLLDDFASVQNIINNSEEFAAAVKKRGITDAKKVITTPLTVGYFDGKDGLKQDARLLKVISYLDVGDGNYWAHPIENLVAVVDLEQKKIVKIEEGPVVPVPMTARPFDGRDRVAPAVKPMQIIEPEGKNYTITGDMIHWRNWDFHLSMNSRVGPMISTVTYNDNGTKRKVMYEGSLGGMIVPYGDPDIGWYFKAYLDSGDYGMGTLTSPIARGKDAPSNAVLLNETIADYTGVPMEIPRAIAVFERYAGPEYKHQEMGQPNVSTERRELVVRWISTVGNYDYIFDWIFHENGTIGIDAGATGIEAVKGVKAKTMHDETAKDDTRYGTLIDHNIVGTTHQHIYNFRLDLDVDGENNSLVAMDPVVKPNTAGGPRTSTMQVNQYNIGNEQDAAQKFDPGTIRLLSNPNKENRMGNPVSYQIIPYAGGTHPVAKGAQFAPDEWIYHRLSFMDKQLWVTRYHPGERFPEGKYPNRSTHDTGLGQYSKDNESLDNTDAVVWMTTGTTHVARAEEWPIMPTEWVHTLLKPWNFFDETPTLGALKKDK
Description: To determine the effect of different inhibitors on ECAO activity, we used purified ECAO protein and a spectroscopic amine oxidase activity assay, which is not as sensitive to additives as the Amplex Red assay. In short, 21 ng of ECAO protein was incubated with differing amounts of inhibitors in Krebs-Ringer phosphate glucose buffer for 20 min at 30°C. After incubation, we added substrate (0.5 mM PEA) and a mixture of 1 mM vanillic acid, 0.5 mM 4-aminopyridine, and 16 U of horseradish peroxidase, and measured the A492nm immediately and hourly thereafter.

[2] = target: T1, ECAO; parameters: method as in PMID 7765483; conditions: cited from earlier work
[3] = system: wt E. coli (tynA+); assay: Growth inhibition assay in liquid medium, wt / tynA+ strains; type: cell-based, Escherichia coli; conditions: SC concentrations lower than 5–10 mM (S5 Fig)
Description: (§1) To assess the effect of inhibitors on bacterial growth, discs with different concentrations of SC were placed on LA plates freshly plated with either tynA+ E. coli (three different strains) or tynA- E. coli (five strains). The inhibition zones were measured the next day. For the growth inhibition assay in a liquid medium, the same strains were cultured in tryptic soy broth (TSB) medium for 14–16 h. Then, 10^3 cells were inoculated into TSB medium with different concentrations (0–100 mg/mL) of SC and cultured further at 37°C with shaking at 100 rpm until the following day. Then, 10 μL of bacterial mixture was plated on lactose medium plates, and the plates were incubated at 37°C for 14–16 h before counting the colonies.
(§2) The inhibition of growth by a selective hydrazine-based human amine oxidase inhibitor, BTT-2052 [30], and SC on tynA+ and tynA- strains was tested similarly in M9-lactose-PEA medium using inhibitor concentrations of 0–0.5 mM.

[4] = system: ΔtynA strain; assay: Growth inhibition assay in liquid medium, ΔtynA / tynA- strains; type: cell-based, Escherichia coli; conditions: liquid medium (S5 Fig)
Description: as §1, §2

[5] = system: tynA+ E. coli and tynA- E. coli; assay: Growth inhibition on LA plates (discs with SC); type: cell-based, Escherichia coli; conditions: data not shown
Description: as §1

[6] = target: T1, ECAO; assay: ECAO activity with human granulocytes as sole substrate (Amplex Red, H2O2 production); type: biochemical; conditions: 30 nM ECAO, 200,000 granulocytes per well, 37°C, Cells + ECAO + SC, p = 0.004
Source text: To test if ECAO has a substrate on human granulocytes, we used purified recombinant protein ECAO, whose production and purification has been described. To collect human neutrophils, we extracted granulocytes from the fresh peripheral blood of healthy volunteers using Ficoll (GE Healthcare). We collected buffy coats according to standard procedure, lysed red blood cells with Pharm Lyse (BD Biosciences, Franklin Lakes, NJ, USA), washed with PBS, counted the cells, and used the cells immediately. The assay was conducted in 25 mM HEPES and 150 mM NaCl (pH 7.4), and we used 30 nM ECAO and 200,000 viable granulocytes per well. PEA was used as a positive control for the substrate, and the specific activity was determined using parallel wells with SC, as described above. The assay was conducted at 37°C. Three independent assays (different blood donors) were performed with duplicates.

[7] = PEA, aminoglycoside concentrations 10 μM–10 mM, read-out: half maximal inhibitory concentration (IC50) of aminoglycosides on ECAO activity on PEA

Compound | decrease of ECAO activity by aminoglycoside [1] | IC50 [1, 7] | effect on ECAO activity [2] | further results
NC[C@H]1O[C@H](O[C@H]2[C@H](O)[C@@H](O[C@H]3O[C@H](CO)[C@@H](O)[C@H](N)[C@H]3O)[C@H](N)C[C@@H]2N)[C@H](O)[C@@H](O)[C@@H]1O [kanamycin] | 23–61% | 3800 µM | – | –
NCC[C@H](O)C(=O)N[C@@H]1C[C@H](N)[C@@H](O[C@H]2O[C@H](CN)[C@@H](O)[C@H](O)[C@H]2O)[C@H](O)[C@H]1O[C@H]1O[C@H](CO)[C@@H](O)[C@H](N)[C@H]1O [amikacin] | 23–61% | 1000 µM | – | –
NO [hydroxylamine] | – | – | inhibited | –
Gentamycin | no effect | – | – | –
NC[C@H]1O[C@H](O[C@H]2[C@H](O)[C@@H](O[C@H]3O[C@H](CO)[C@@H](O)[C@H](N)[C@H]3O)[C@H](N)C[C@@H]2N)[C@H](N)C[C@@H]1O [tobramycin] | 23–61% | 800 µM | – | –
NNC(N)=O [SC, semicarbazide] | – | – | inhibited | IC50 ([1]; 0.5 mM PEA, seven inhibitor concentrations 0.1–10 μM, 30°C, read-out: half maximal inhibitory concentration (IC50) on ECAO activity on PEA): 0.7 µM; effect on growth in liquid rich media [3]: no significant effect; effect on growth of the ΔtynA strain [4]: no effect; effect on bacterial growth on LA plates ([5]; at 100 mg/mL): minimal; effect on bacterial growth on LA plates ([5]; under the concentration of 100 mg/mL): no effect; effect on H2O2 production by ECAO with granulocytes as only source of substrate [6]: inhibited
CC(C)NNC(=O)c1ccncc1 [iproniazid] | – | – | inhibited | –
NNCCc1ccccc1 [phenelzine] | – | – | inhibited | –
N[C@@H]1C[C@H]1c1ccccc1 [tranycypromine] | – | – | inhibited | –
CN[C@@H]1[C@@H](O)[C@@H](O[C@@H]2[C@@H](O)[C@H](O[C@H]3OC(CN)=CC[C@H]3N)[C@@H](N)C[C@H]2N)OC[C@]1(C)O [sisomycin] | 23–61% | – | – | –

Source: publication PMC4640556, “Primary Amine Oxidase of Escherichia coli Is a Metabolic Enzyme that Can Use a Human Leukocyte Molecule as a Substrate” (PLoS ONE, 2015)
